# According to paper PMC10855908 (International Journal of Molecular Sciences, 2024):
# No end group written: not given here.
# Tests used:
# C. perfringens MLG0418 [1] = type: cell-based, Clostridium perfringens
# C. perfringens MLG0618 [2] = type: cell-based, Clostridium perfringens
# C. perfringens MLG0712 [3] = type: cell-based, Clostridium perfringens
# C. perfringens MLG1108 [4] = type: cell-based, Clostridium perfringens
# C. perfringens MLG1619 [5] = type: cell-based, Clostridium perfringens
# C. perfringens MLG1819 [6] = type: cell-based, Clostridium perfringens
# C. perfringens MLG2203 [7] = type: cell-based, Clostridium perfringens
# C. perfringens MLG2314 [8] = type: cell-based, Clostridium perfringens
# C. perfringens MLG2919 [9] = type: cell-based, Clostridium perfringens
# C. perfringens MLG3111 [10] = type: cell-based, Clostridium perfringens
# C. perfringens MLG3406 [11] = type: cell-based, Clostridium perfringens
# C. perfringens MLG4201 [12] = type: cell-based, Clostridium perfringens
# C. perfringens MLG4206 [13] = type: cell-based, Clostridium perfringens
# C. perfringens MLG5719 [14] = type: cell-based, Clostridium perfringens
# C. perfringens MLG5806 [15] = type: cell-based, Clostridium perfringens
# C. perfringens MLG6907 [16] = type: cell-based, Clostridium perfringens
# C. perfringens MLG7009 [17] = type: cell-based, Clostridium perfringens
# C. perfringens MLG7307 [18] = type: cell-based, Clostridium perfringens
# C. perfringens MLG7309 [19] = type: cell-based, Clostridium perfringens
# C. perfringens MLG7814 [20] = type: cell-based, Clostridium perfringens
# C. perfringens MLG0418 [21] = type: cell-based, Clostridium perfringens; remark: listed apart in the source
# C. perfringens MLG0618 [22] = type: cell-based, Clostridium perfringens; remark: listed apart in the source
# C. perfringens MLG0712 [23] = type: cell-based, Clostridium perfringens; remark: listed apart in the source
# C. perfringens MLG1108 [24] = type: cell-based, Clostridium perfringens; remark: listed apart in the source
# C. perfringens MLG1619 [25] = type: cell-based, Clostridium perfringens; remark: listed apart in the source
# C. perfringens MLG1819 [26] = type: cell-based, Clostridium perfringens; remark: listed apart in the source
# C. perfringens MLG2203 [27] = type: cell-based, Clostridium perfringens; remark: listed apart in the source
# C. perfringens MLG2314 [28] = type: cell-based, Clostridium perfringens; remark: listed apart in the source
# C. perfringens MLG2919 [29] = type: cell-based, Clostridium perfringens; remark: listed apart in the source
# C. perfringens MLG3111 [30] = type: cell-based, Clostridium perfringens; remark: listed apart in the source
# C. perfringens MLG3406 [31] = type: cell-based, Clostridium perfringens; remark: listed apart in the source
# C. perfringens MLG4201 [32] = type: cell-based, Clostridium perfringens; remark: listed apart in the source
# C. perfringens MLG4206 [33] = type: cell-based, Clostridium perfringens; remark: listed apart in the source
# C. perfringens MLG5719 [34] = type: cell-based, Clostridium perfringens; remark: listed apart in the source
# C. perfringens MLG5806 [35] = type: cell-based, Clostridium perfringens; remark: listed apart in the source
# C. perfringens MLG6907 [36] = type: cell-based, Clostridium perfringens; remark: listed apart in the source
# C. perfringens MLG7009 [37] = type: cell-based, Clostridium perfringens; remark: listed apart in the source
# C. perfringens MLG7307 [38] = type: cell-based, Clostridium perfringens; remark: listed apart in the source
# C. perfringens MLG7309 [39] = type: cell-based, Clostridium perfringens; remark: listed apart in the source
# C. perfringens MLG7814 [40] = type: cell-based, Clostridium perfringens; remark: listed apart in the source
# [41] = test system: Campylobacter coli ATCC 33559; details: ATCC 33559, 24 h
# C. coli ATCC33559 = details: ATCC33559, 24 h, 200 μg/mL
substance,measurement,setting,value
"Nisin (ITSISLCTPGCKTGALMGCNMKTATCHCSIHVSK; thioether (positions not given here); not fully specified (some residues, bridges); UniProt P13068 24-57, looked up)",MIC,C. perfringens MLG0418 [1],1.56 µg/mL
same,MIC,C. perfringens MLG0618 [2],0.39 µg/mL
same,MIC,C. perfringens MLG0712 [3],0.39 µg/mL
same,MIC,C. perfringens MLG1108 [4],0.78 µg/mL
same,MIC,C. perfringens MLG1619 [5],0.19 µg/mL
same,MIC,C. perfringens MLG1819 [6],0.39 µg/mL
same,MIC,C. perfringens MLG2203 [7],<0.09 µg/mL
same,MIC,C. perfringens MLG2314 [8],1.56 µg/mL
same,MIC,C. perfringens MLG2919 [9],1.56 µg/mL
same,MIC,C. perfringens MLG3111 [10],0.39 µg/mL
same,MIC,C. perfringens MLG3406 [11],3.12 µg/mL
same,MIC,C. perfringens MLG4201 [12],0.78 µg/mL
same,MIC,C. perfringens MLG4206 [13],1.56 µg/mL
same,MIC,C. perfringens MLG5719 [14],1.56 µg/mL
same,MIC,C. perfringens MLG5806 [15],1.56 µg/mL
same,MIC,C. perfringens MLG6907 [16],1.56 µg/mL
same,MIC,C. perfringens MLG7009 [17],1.56 µg/mL
same,MIC,C. perfringens MLG7307 [18],0.78 µg/mL
same,MIC,C. perfringens MLG7309 [19],0.78 µg/mL
same,MIC,C. perfringens MLG7814 [20],3.12 µg/mL
same,Inhibition halos,C. perfringens MLG0418 [21],23 mm
same,Inhibition halos,C. perfringens MLG0618 [22],14 mm
same,Inhibition halos,C. perfringens MLG0712 [23],17 mm
same,Inhibition halos,C. perfringens MLG1108 [24],16 mm
same,Inhibition halos,C. perfringens MLG1619 [25],20 mm
same,Inhibition halos,C. perfringens MLG1819 [26],19 mm
same,Inhibition halos,C. perfringens MLG2203 [27],24 mm
same,Inhibition halos,C. perfringens MLG2314 [28],20 mm
same,Inhibition halos,C. perfringens MLG2919 [29],21 mm
same,Inhibition halos,C. perfringens MLG3111 [30],27 mm
same,Inhibition halos,C. perfringens MLG3406 [31],19 mm
same,Inhibition halos,C. perfringens MLG4201 [32],18 mm
same,Inhibition halos,C. perfringens MLG4206 [33],25 mm
same,Inhibition halos,C. perfringens MLG5719 [34],19 mm
same,Inhibition halos,C. perfringens MLG5806 [35],19 mm
same,Inhibition halos,C. perfringens MLG6907 [36],23 mm
same,Inhibition halos,C. perfringens MLG7009 [37],20 mm
same,Inhibition halos,C. perfringens MLG7307 [38],20 mm
same,Inhibition halos,C. perfringens MLG7309 [39],17 mm
same,Inhibition halos,C. perfringens MLG7814 [40],23 mm
MGAIAKLVAKFGWPIVKKYYKQIMQFIGEGWAINKIIEWIKKHI [Enterocin L50A],MIC,[41],25 µg/mL
same,Inhibition halos,C. coli ATCC33559,10 mm
